Where two headings read alike, the source gives them in different places.
Key:
Cannabinoid CB1 Receptor = molecular target: T1, Cannabinoid CB1 Receptor (Homo sapiens, UniProt P21554); assay: Binding assay for CB1 agonists or inverse agonists (radioligand competition, membranes of transfected SK-N-MC cells); conditions: for inhibition at 0.2 µM: read-out: Cannabinoid CB1 Receptor Binding percent inhibition
T1 construct: expressed in transfected cells

Cannabinoid CB2 Receptor = molecular target: T2, Cannabinoid CB2 Receptor (Homo sapiens, UniProt P34972); assay: Binding assay for CB2 agonists or inverse agonists (radioligand competition, membranes of transfected SK-N-MC cells); conditions: for inhibition at 0.2 µM: read-out: Cannabinoid CB2 Receptor Binding percent inhibition
T2 construct: expressed in transfected cells

[1] = test concentration of 0.2 μM, compounds without an IC50 binding value

T1 sequence (P21554 whole entry): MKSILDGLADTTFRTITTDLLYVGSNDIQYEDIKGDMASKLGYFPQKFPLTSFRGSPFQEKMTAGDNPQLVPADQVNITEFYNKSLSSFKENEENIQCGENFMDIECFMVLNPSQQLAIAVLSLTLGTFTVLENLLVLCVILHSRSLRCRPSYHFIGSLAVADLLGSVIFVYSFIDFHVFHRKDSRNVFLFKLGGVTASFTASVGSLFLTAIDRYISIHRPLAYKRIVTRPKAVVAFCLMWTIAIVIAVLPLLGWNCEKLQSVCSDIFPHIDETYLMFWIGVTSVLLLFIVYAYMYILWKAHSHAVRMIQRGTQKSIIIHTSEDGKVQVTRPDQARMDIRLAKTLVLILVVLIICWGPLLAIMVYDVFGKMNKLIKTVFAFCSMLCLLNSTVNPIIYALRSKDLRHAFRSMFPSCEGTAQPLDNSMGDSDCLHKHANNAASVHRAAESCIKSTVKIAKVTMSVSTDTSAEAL
T2 sequence (P34972 whole entry): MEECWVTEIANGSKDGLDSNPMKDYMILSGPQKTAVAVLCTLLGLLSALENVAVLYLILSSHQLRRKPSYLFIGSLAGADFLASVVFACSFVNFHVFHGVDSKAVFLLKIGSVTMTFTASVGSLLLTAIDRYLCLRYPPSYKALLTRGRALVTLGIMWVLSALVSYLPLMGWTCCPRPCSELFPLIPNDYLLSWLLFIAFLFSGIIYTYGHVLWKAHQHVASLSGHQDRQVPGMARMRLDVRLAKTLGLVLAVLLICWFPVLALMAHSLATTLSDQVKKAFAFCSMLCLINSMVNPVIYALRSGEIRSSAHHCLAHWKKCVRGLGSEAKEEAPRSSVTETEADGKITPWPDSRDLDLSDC

Row | Structure (SMILES) | inhibition at 0.2 µM (Cannabinoid CB1 Receptor; [1]) | inhibition at 0.2 µM (Cannabinoid CB2 Receptor; [1]) | also measured
1 | C[C@H](NC(=O)c1nn(-c2ccc(Cl)cc2Cl)c2c1CN(C(=O)OC(C)(C)C)C/C2=C\c1ccc(F)cc1)C1CCCCC1 [Cpd 4, (7E)-3-[(1S)-1-cyclohexyl-ethylcarbamoyl]-1-(2,4-dichloro-phenyl)-7-(4-fluoro-benzylidene)-1,4,6,7-tetrahydro-pyrazolo[4,3-c]pyridine-5-carboxylic acid tert-butyl ester] |  |  | inhibition at 0.2 µM (Cannabinoid CB1 Receptor): 48%; inhibition at 0.2 µM (Cannabinoid CB2 Receptor): 9%
2 | C[C@H](NC(=O)c1nn(-c2ccc(Cl)cc2Cl)c2c1CNC/C2=C\c1ccc(F)cc1)C1CCCCC1 [Cpd 5, (7E)-1-(2,4-dichloro-phenyl)-7-(4-fluoro-benzylidene)-4,5,6,7-tetrahydro-1H-pyrazolo[4,3-c]pyridine-3-carboxylic acid [(1S)-1-cyclohexyl-ethyl]-amide] |  |  | inhibition at 0.2 µM (Cannabinoid CB1 Receptor): 48%; inhibition at 0.2 µM (Cannabinoid CB2 Receptor): 8%
3 | COc1ccc(/C=C2\CN(S(=O)(=O)N(C)C)Cc3c(C(=O)N[C@H](C)c4ccccc4)nn(-c4ccc(Cl)cc4Cl)c32)cc1 [Cpd 47] |  |  | IC50 (Cannabinoid CB1 Receptor): 2 nM; Cannabinoid CB2 Receptor Binding percent inhibition (Cannabinoid CB2 Receptor; [1]): 66%
4 | COc1ccc(/C=C2\CN(CC(=O)O)Cc3c(C(=O)N[C@H](C)c4ccccc4)nn(-c4ccc(Cl)cc4Cl)c32)cc1 [Cpd 51, (7E)-[1-(2,4-dichloro-phenyl)-7-(4-methoxy-benzylidene)-3-[(1R)-1-phenyl-ethylcarbamoyl]-1,4,6,7-tetrahydro-pyrazolo[4,3-c]pyridin-5-yl]-acetic acid] | 49% | 19% | 
5 | C[C@@H](NC(=O)c1nn(-c2ccc(Cl)cc2Cl)c2c1CN(CC(=O)O)C/C2=C\c1ccc(F)cc1)c1ccccc1 [Cpd 52, (7E)-[1-(2,4-dichloro-phenyl)-7-(4-fluoro-benzylidene)-3-[(1R)-1-phenyl-ethylcarbamoyl]-1,4,6,7-tetrahydro-pyrazolo[4,3-c]pyridin-5-yl]-acetic acid] | 38% | 7% | 
6 | CC(NC(=O)c1nn(-c2ccc(Cl)cc2)c2c1CN(C(=O)OC(C)(C)C)C/C2=C\c1ccc(F)cc1)c1ccccn1 (stereo not shown) [Cpd 73, (7E)-1-(4-chloro-phenyl)-7-(4-fluoro-benzylidene)-3-(1-pyridin-2-yl-ethylcarbamoyl)-1,4,6,7-tetrahydro-pyrazolo[4,3-c]pyridine-5-carboxylic acid tert-butyl ester] | 50% | 6% | 
7 | CC(C)(C)OC(=O)N1C/C(=C\c2ccc(F)cc2)c2c(c(C(=O)NN3CCCCC3)nn2-c2ccc(Cl)cc2)C1 [Cpd 74, (7E)-1-(4-chloro-phenyl)-7-(4-fluoro-benzylidene)-3-(piperidin-1-ylcarbamoyl)-1,4,6,7-tetrahydro-pyrazolo[4,3-c]pyridine-5-carboxylic acid tert-butyl ester] | 39% | 3% | 
8 | CC(=O)N1C/C(=C\c2ccc(F)cc2)c2c(c(C(=O)NN3CCCCC3)nn2-c2ccc(Cl)cc2)C1 [Cpd 81, (7E)-5-acetyl-1-(4-chloro-phenyl)-7-(4-fluoro-benzylidene)-4,5,6,7-tetrahydro-1H-pyrazolo[4,3-c]pyridine-3-carboxylic acid piperidin-1-ylamide] | 10% | 22% | 
9 | COC(=O)N1C/C(=C\c2ccc(F)cc2)c2c(c(C(=O)NN3CCCCC3)nn2-c2ccc(Cl)cc2)C1 [Cpd 82, (7E)-1-(4-chloro-phenyl)-7-(4-fluoro-benzylidene)-3-(piperidin-1-ylcarbamoyl)-1,4,6,7-tetrahydro-pyrazolo[4,3-c]pyridine-5-carboxylic acid methyl ester] |  |  | IC50 (Cannabinoid CB1 Receptor): 60 nM; Cannabinoid CB2 Receptor Binding percent inhibition (Cannabinoid CB2 Receptor; [1]): 32%
10 | CCNC(=O)N1C/C(=C\c2ccc(F)cc2)c2c(c(C(=O)NN3CCCCC3)nn2-c2ccc(Cl)cc2)C1 [Cpd 83, (7E)-1-(4-chloro-phenyl)-7-(4-fluoro-benzylidene)-1,4,6,7-tetrahydro-pyrazolo[4,3-c]pyridine-3,5-dicarboxylic acid 5-ethylamide 3-piperidin-1-ylamide] | 32% | 19% | 
11 | CC(C)(C)OC(=O)N1C/C(=C\c2ccc(F)cc2)c2c(c(C(=O)NN3CC4CCCC4C3)nn2-c2ccc(Cl)cc2)C1 (stereo not shown) [Cpd 84, (7E)-1-(4-chloro-phenyl)-7-(4-fluoro-benzylidene)-3-(hexahydro-cyclopenta[c]pyrrol-2-ylcarbamoyl)-1,4,6,7-tetrahydro-pyrazolo[4,3-c]pyridine-5-carboxylic acid tert-butyl ester] | 30% | 12% | 
12 | O=C(NN1CC2CCCC2C1)c1nn(-c2ccc(Cl)cc2)c2c1CNC/C2=C\c1ccc(F)cc1 (stereo not shown) [Cpd 85, (7E)-1-(4-chloro-phenyl)-7-(4-fluoro-benzylidene)-4,5,6,7-tetrahydro-1H-pyrazolo[4,3-c]pyridine-3-carboxylic acid (hexahydro-cyclopenta[c]pyrrol-2-yl)-amide] | 45% | 11% | 
13 | CC(=O)N1C/C(=C\c2ccc(F)cc2)c2c(c(C(=O)NN3CC4CCCC4C3)nn2-c2ccc(Cl)cc2)C1 (stereo not shown) [Cpd 86, (7E)-5-acetyl-1-(4-chloro-phenyl)-7-(4-fluoro-benzylidene)-4,5,6,7-tetrahydro-1H-pyrazolo[4,3-c]pyridine-3-carboxylic acid (hexahydro-cyclopenta[c]pyrrol-2-yl)-amide] | 46% | 24% | 
14 | CC(C)(C)OC(=O)N1C/C(=C\c2ccc(F)cc2)c2c(c(C(=O)NN3CC4CCCC4C3)nn2-c2ccc(Cl)cc2Cl)C1 (stereo not shown) [Cpd 88, (7E)-1-(2,4-dichloro-phenyl)-7-(4-fluoro-benzylidene)-3-(hexahydro-cyclopenta[c]pyrrol-2-ylcarbamoyl)-1,4,6,7-tetrahydro-pyrazolo[4,3-c]pyridine-5-carboxylic acid tert-butyl ester] | 53% | 0% | 
15 | COc1ccc(/C=C2\CN(C(=O)OC(C)(C)C)Cc3c(C(=O)NN4CC5CCCC5C4)nn(-c4ccc(Cl)cc4Cl)c32)cc1 (stereo not shown) [Cpd 94, (7E)-1-(2,4-dichloro-phenyl)-3-(hexahydro-cyclopenta[c]pyrrol-2-ylcarbamoyl)-7-(4-methoxy-benzylidene)-1,4,6,7-tetrahydro-pyrazolo[4,3-c]pyridine-5-carboxylic acid tert-butyl ester] | 70% | 38% | 
16 | CCNC(=O)N1C/C(=C\c2ccc(OC)cc2)c2c(c(C(=O)NN3CC4CCCC4C3)nn2-c2ccc(Cl)cc2Cl)C1 (stereo not shown) [Cpd 101, (7E)-1-(2,4-dichloro-phenyl)-7-(4-methoxy-benzylidene)-1,4,6,7-tetrahydro-pyrazolo[4,3-c]pyridine-3,5-dicarboxylic acid 5-ethylamide 3-[(hexahydro-cyclopenta[c]pyrrol-2-yl)-amide]] | 68% | 15% | 
17 | CCCCn1nc(C(=O)NN2CCCCC2)c2c1CCN(C(=O)OC)C2 [Cpd 102, 1-butyl-3-(piperidin-1-ylcarbamoyl)-1,4,6,7-tetrahydro-pyrazolo[4,3-c]pyridine-5-carboxylic acid methyl ester] |  | 23% | 
18 | CC12CCC(C1)C(C)(C)C2NC(=O)c1nn(Cc2ccccc2)c2c1CN(C(=O)OCc1ccccc1)CC2 (stereo not shown) [Cpd 108, 1-benzyl-3-(1,3,3-trimethyl-bicyclo[2.2.1]hept-2-ylcarbamoyl)-1,4,6,7-tetrahydro-pyrazolo[4,3-c]pyridine-5-carboxylic acid benzyl ester] |  |  | IC50 (Cannabinoid CB1 Receptor): 200 nM; IC50 (Cannabinoid CB2 Receptor): 2 nM
19 | CCC(=O)N1CCc2c(c(C(=O)NC3C4(C)CCC(C4)C3(C)C)nn2Cc2ccccc2)C1 (stereo not shown) [Cpd 110, 1-benzyl-5-propionyl-4,5,6,7-tetrahydro-1H-pyrazolo[4,3-c]pyridine-3-carboxylic acid (1,3,3-trimethyl-bicyclo[2.2.1]hept-2-yl)-amide] |  |  | IC50 (Cannabinoid CB1 Receptor): 500 nM; IC50 (Cannabinoid CB2 Receptor): 20 nM
20 | CC12CCC(C1)C(C)(C)C2NC(=O)c1nn(C2CCCCC2)c2c1CN(C(=O)OCc1ccccc1)CC2 (stereo not shown) [Cpd 121, 1-cyclohexyl-3-(1,3,3-trimethyl-bicyclo[2.2.1]hept-2-ylcarbamoyl)-1,4,6,7-tetrahydro-pyrazolo[4,3-c]pyridine-5-carboxylic acid benzyl ester] |  |  | IC50 (Cannabinoid CB1 Receptor): 1500 nM; IC50 (Cannabinoid CB2 Receptor): 90 nM
21 | CCOC(=O)CN1CCc2c(c(C(=O)NC3C4(C)CCC(C4)C3(C)C)nn2C2CCCCC2)C1 (stereo not shown) [Cpd 126, [1-cyclohexyl-3-(1,3,3-trimethyl-bicyclo[2.2.1]hept-2-ylcarbamoyl)-1,4,6,7-tetrahydro-pyrazolo[4,3-c]pyridin-5-yl]-acetic acid ethyl ester] |  | 49% | IC50 (Cannabinoid CB1 Receptor; human CB1, SK-N-MC cell membranes, calculated by linear regression from percent inhibition at various concentrations, read-out: Cannabinoid CB1 Receptor Binding IC50): 1200 nM
22 | CC(C)(C)OC(=O)N1CCc2c(c(C(=O)NC3C4CC5CC(C4)CC3C5)nn2C2CCCCC2)C1 (stereo not shown) [Cpd 130, 3-(adamantan-2-ylcarbamoyl)-1-cyclohexyl-1,4,6,7-tetrahydro-pyrazolo[4,3-c]pyridine-5-carboxylic acid tert-butyl ester] |  |  | IC50 (Cannabinoid CB1 Receptor): 60 nM
23 | CC(C)(C)OC(=O)N1C/C(=C\c2ccc(F)cc2)c2c(c(C(=O)N3CCCCC3)nn2-c2ccc(Cl)cc2Cl)C1 [Cpd 135, (7E)-1-(2,4-dichloro-phenyl)-7-(4-fluoro-benzylidene)-3-(piperidine-1-carbonyl)-1,4,6,7-tetrahydro-pyrazolo[4,3-c]pyridine-5-carboxylic acid tert-butyl ester] | 40% | 28% | 
24 | CC(=O)N1C/C(=C\c2ccc(F)cc2)c2c(c(C(=O)N(C(C)=O)N3CC4CCCC4C3)nn2-c2ccc(Cl)cc2)C1 (stereo not shown) [Cpd 136, (7E)-5-acetyl-1-(4-chloro-phenyl)-7-(4-fluoro-benzylidene)-4,5,6,7-tetrahydro-1H-pyrazolo[4,3-c]pyridine-3-carboxylic acid acetyl-(hexahydro-cyclopenta[c]pyrrol-2-yl)-amide] | 39% | 22% | 

From patent US20060089378A1 (priority 2004, published 2006)
